Measured values published in patent US20070196407A1, “Alkoxyphenylcarboxylic acid derivatives” (priority 2004, published 2007).
Several values for one entry are separate records, joined by “and”; a condition that tells them apart may be missing. Equal entries are not always repeated.

What was measured:
[1] = tested on: Proteus vulgaris ATCC 6896; assay: MIC in the agar incorporation test; assay type: cell-based; settings: unit not given, method gives agar concentrations in ppm
Protocol: (§1) Test solution: 1% stock solutions of all the test substances are prepared in a suitable solvent and diluted in serial dilutions as far as possible so that final concentrations of from 500 ppm to 10 ppm are obtained in the agar. Test principle: 0.3 ml of the particular dilution stage is mixed with 15 ml of still liquid nutrient medium. After solidification of the nutrient base, 10 μl of the test strains in a suitable organism dilution in 0.85% NaCl solution are applied point-wise to the agar medium: [table]

[2] = tested on: Aspergillus niger ATCC 6275; assay: MIC in the agar incorporation test; assay type: cell-based; settings: Sabouraud 4% glucose agar, 3 days at 28° C., unit not given, method gives agar concentrations in ppm
Protocol: as §1

[3] = tested on: Staphylococcus aureus ATCC 9144; assay: MIC in the agar incorporation test; assay type: cell-based; settings: 24 hours at 37° C., unit not given, method gives agar concentrations in ppm
Protocol: as §1

[4] = tested on: Escherichia coli NCTC 8196; assay: MIC in the agar incorporation test; assay type: cell-based; settings: 24 hours at 37° C., unit not given, method gives agar concentrations in ppm
Protocol: as §1

[5] = tested on: Salmonella choleraesuis ATCC 9184; assay: MIC in the agar incorporation test; assay type: cell-based; settings: unit not given, method gives agar concentrations in ppm
Protocol: as §1

[6] = tested on: Staphylococcus aureus ATCC 6538; assay: MIC in the agar incorporation test; assay type: cell-based; settings: 24 hours at 37° C., unit not given, method gives agar concentrations in ppm
Protocol: as §1

[7] = tested on: Propionibacterium acnes ATCC 6919; assay: MIC in the agar incorporation test; assay type: cell-based; settings: unit not given, method gives agar concentrations in ppm
Protocol: as §1

[8] = tested on: Klebsiella pneumoniae ATCC 4352; assay: MIC in the agar incorporation test; assay type: cell-based; settings: unit not given, method gives agar concentrations in ppm
Protocol: as §1

[9] = tested on: Staphylococcus epidermidis ATCC 12228; assay: MIC in the agar incorporation test; assay type: cell-based; settings: unit not given, method gives agar concentrations in ppm
Protocol: as §1

[10] = tested on: Corynebacterium minutissimum ATCC 23348; assay: MIC in the agar incorporation test; assay type: cell-based; settings: unit not given, method gives agar concentrations in ppm
Protocol: as §1

[11] = tested on: Escherichia coli ATCC 10536; assay: MIC in the agar incorporation test; assay type: cell-based; settings: 24 hours at 37° C., unit not given, method gives agar concentrations in ppm
Protocol: as §1

[12] = tested on: Candida albicans ATCC 10231; assay: MIC in the agar incorporation test; assay type: cell-based; settings: Sabouraud 4% glucose agar, 3 days at 28° C., unit not given, method gives agar concentrations in ppm
Protocol: as §1

[13] = tested on: Pseudomonas aeruginosa ATCC 15442; assay: MIC in the agar incorporation test; assay type: cell-based; settings: 24 hours at 37° C., unit not given, method gives agar concentrations in ppm
Protocol: as §1

S. mutans ATCC33402 = assay: MIC against oral organisms in the serial dilution test; assay type: cell-based, Streptococcus mutans; settings: thioglycolate broth, 24 h aerobic with 10% CO2, unit not given, stock solutions in ppm (w/w)
Text: (§2) Determination of the MIC Against Various Oral Organisms in the Serial Dilution Test
(§3) Medium: Thioglycolate broth with hemin and menadione • Columbia broth with hemin and menadione for P. gingivalis and P. nigrescens
(§4) Dilution medium: The appropriate amount of the substances was pipetted directly onto the medium.
(§5) Test organisms: Actinobacillus actinomycetemcomitans ATCC 43718 • Streptococcus gordonii ATCC 10558 • Streptococcus mutans ATCC 33402 • Actinomyces viscosus ATCC 43146 • Fusobacterium nucleatum subsp. polymorphum ATCC 10953 • Porphyromonas gingivalis ATCC 33277 • Prevotella nigrescens ATCC 33563
(§6) Incubation: 7-10 days at 37° C. anaerobic, or 24 h aerobic with 10% CO2for Streptococci and A. actinomycetemcomitans
(§7) Test solution: Stock solutions of all the test substances in ethanol comprising 1500 ppm (w/w) are used.
(§8) Bacteria are removed from blood agar plates using cotton-wool-tipped sticks and a suitable O.D. is established in the appropriate medium (McFarland 0.5); this solution is used undiluted for F. nucleatum and P. nigrescens and diluted 1:20 for the other strains. 0.1 ml of bacteria culture is added to 2 ml of each of the active substance solutions, and incubation is carried out as described above.

[14] = tested on: A. actinomycetemcomitans ATCC43718; assay: as above; assay type: cell-based, Actinobacillus actinomycetemcomitans; settings: thioglycolate broth, 24 h aerobic with 10% CO2, unit not given, stock solutions in ppm (w/w)
Text: as §2, §3, §4, §5, §6, §7, §8

[15] = tested on: biofilm of a defined mixed culture of gram+ and gram− oral organisms and a yeast (Candida albicans) on hydroxyapatite discs; assay: Activity in the biofilm model (in vitro supragingival plaque); assay type: cell-based; settings: 0.5% substance (II) in mouthwash formulation
Text: Test of the Activity of 2-dodecyloxy-benzoic Acid (II) in the Biofilm Model
Principle: see Guggenheim et a/. (2001), “Validation of an in vitro biofilm model of supragingival plaque”, J. Dent Res. 80 (1)
Hydroxyapatite discs are pretreated with human saliva and a biofilm of a defined mixed culture of various gram+ and gram− oral organisms (Streptococci, Actinomyces sp., Veillonella & Fusobacterium sp. & others) and a yeast (Candida albicans) are allowed to grow on the hydroxyapatite. During the test period of 4 days, the discs are immersed, several times in all, in the below given application formulation of the substance (II),
and at the end the biofilm is harvested and the number of living cells is determined.

[16] = tested on: Actinomyces viscosus ATCC 43146; assay: Substantivity on hydroxyapatite and growth-inhibiting action; assay type: cell-based; settings: plates pretreated with synthetic saliva, incubated in ethanolic solution comprising 50 and 500 ppm; 24 hours at 37° C.; in comparison with an untreated control (FIGS. 1 and 2)
Protocol: Principle: apatite plates (dia. 10 mm) are placed in synthetic saliva (Deutsche Zahnärztliche Zeitschrift DZZ May 2002), rinsed in NaCl and then incubated in an ethanolic solution of test substances (II) and (III) comprising 50 and 500 ppm. The plates are then introduced into a Nunclon Surface titre plate (12 wells) and incubated for 24 hours at 37° C. in Caso nutrient medium which has been inoculated with Actinomyces viscosus ATCC 43146 (about 10^5/ml).

S. gordonii ATCC10558 = assay: MIC against oral organisms in the serial dilution test; assay type: cell-based, Streptococcus gordonii; settings: thioglycolate broth, 24 h aerobic with 10% CO2, unit not given, stock solutions in ppm (w/w)
Text: as §2, §3, §4, §5, §6, §7, §8

[17] = tested on: F. nucleatum subsp. polymorphum ATCC10953; assay: as above; assay type: cell-based, Fusobacterium nucleatum subsp. polymorphum; settings: thioglycolate broth, 7-10 days at 37° C. anaerobic, unit not given, stock solutions in ppm (w/w)
Text: as §2, §3, §4, §5, §6, §7, §8

A. viscosus ATCC43146 = assay: as above; assay type: cell-based, Actinomyces viscosus; settings: thioglycolate broth, 7-10 days at 37° C. anaerobic, unit not given, stock solutions in ppm (w/w)
Text: as §2, §3, §4, §5, §6, §7, §8

P. gingivalis ATCC3277 = assay: as above; assay type: cell-based, Porphyromonas gingivalis; settings: Columbia broth with hemin and menadione, 7-10 days at 37° C. anaerobic, unit not given, stock solutions in ppm (w/w)
Text: as §2, §3, §4, §5, §6, §7, §8

P. nigrescens ATCC33563 = assay: as above; assay type: cell-based, Prevotella nigrescens; settings: Columbia broth with hemin and menadione, 7-10 days at 37° C. anaerobic, unit not given, stock solutions in ppm (w/w)
Text: as §2, §3, §4, §5, §6, §7, §8

## CCCCCCCCCCCCOc1ccccc1C(=O)O [II, 2-dodecyloxy-benzoic acid]
[1]
  Minimum Inhibitory Concentration (MIC): >500
[2]
  Minimum Inhibitory Concentration (MIC): >500
[3]
  Minimum Inhibitory Concentration (MIC): 31.25
[4]
  Minimum Inhibitory Concentration (MIC): >500
[5]
  Minimum Inhibitory Concentration (MIC): >500
[6]
  Minimum Inhibitory Concentration (MIC): 31.25
[7]
  Minimum Inhibitory Concentration (MIC): 15.63
[8]
  Minimum Inhibitory Concentration (MIC): >500
[9]
  Minimum Inhibitory Concentration (MIC): 15.63
[10]
  Minimum Inhibitory Concentration (MIC): 15.63
[11]
  Minimum Inhibitory Concentration (MIC): >500
[12]
  Minimum Inhibitory Concentration (MIC): >500
[13]
  Minimum Inhibitory Concentration (MIC): >500
S. mutans ATCC33402
  MIC: 7.5
[14]
  MIC: >15
[15]; discs immersed several times during 4 days, two independent tests
  number of living cells of the harvested biofilm (mean values): 1.2 × 10^5 CFU/disc and 1.7 × 10^5 CFU/disc
[15]; test period of 4 days
  microbial count of the biofilm on the hydroxyapatite discs compared with the placebo formulation: marked reduction
[16]
  growth of Actinomyces viscosus after adsorption of the substance onto hydroxyapatite plates: inhibition of the growth
S. gordonii ATCC10558
  MIC: 15
[17]
  MIC: >15
A. viscosus ATCC43146
  MIC: 1.88
P. gingivalis ATCC3277
  MIC: 7.5
P. nigrescens ATCC33563
  MIC: >15

## CCCCCCCCCCCCCCCCOc1cc(C(=O)O)cc(C(=O)O)c1 [III, 5-hexadecyloxy-isophthalic acid]
[1]
  Minimum Inhibitory Concentration (MIC): >48
[2]
  Minimum Inhibitory Concentration (MIC): >48
[3]
  Minimum Inhibitory Concentration (MIC): 24
[4]
  Minimum Inhibitory Concentration (MIC): >48
[5]
  Minimum Inhibitory Concentration (MIC): >48
[6]
  Minimum Inhibitory Concentration (MIC): 24
[7]
  Minimum Inhibitory Concentration (MIC): 12
[8]
  Minimum Inhibitory Concentration (MIC): >48
[9]
  Minimum Inhibitory Concentration (MIC): 12
[10]
  Minimum Inhibitory Concentration (MIC): 24
[11]
  Minimum Inhibitory Concentration (MIC): >48
[12]
  Minimum Inhibitory Concentration (MIC): >48
[13]
  Minimum Inhibitory Concentration (MIC): >48
S. mutans ATCC33402
  MIC: 3.75
[14]
  MIC: 15
[16]
  growth of Actinomyces viscosus after adsorption of the substance onto hydroxyapatite plates: inhibition of the growth
S. gordonii ATCC10558
  MIC: ≦0.94
[17]
  MIC: >15
A. viscosus ATCC43146
  MIC: 1.88
P. gingivalis ATCC3277
  MIC: ≦0.94
P. nigrescens ATCC33563
  MIC: >15
